# Measurements: PMC6664820, “Novel natural and synthetic inhibitors of solute carriers SGLT1 and SGLT2” (Pharmacology Research & Perspectives, 2019)
# Several values for one entry are separate records, joined by “and”; a condition that tells them apart may be missing. Equal entries are not always repeated. Structures can show the parent of a compound that is named as a salt. Where two headings read alike, the source gives them in different places.
# Tests used:
# SGLT1 = molecular target: T1, SGLT1 (Homo sapiens, UniProt P13866); assay: SGLT1 inhibition assay for validation of screening hits and similar compounds (1‐NBD‐glucose uptake, CHO‐hSGLT1 cells); assay type: cell-based; parameters: activity: dose or concentration left out as unconfirmed; details: for remaining activity at 5 µM / remaining activity at 50 µM: 0.5 h, read-out: NORMALIZED SGLT1 ACTIVITY (%); for activity: compound, normalized 1-NBD-glucose uptake, CHO-hSGLT1 cells
# T1 sequence (P13866 1-664): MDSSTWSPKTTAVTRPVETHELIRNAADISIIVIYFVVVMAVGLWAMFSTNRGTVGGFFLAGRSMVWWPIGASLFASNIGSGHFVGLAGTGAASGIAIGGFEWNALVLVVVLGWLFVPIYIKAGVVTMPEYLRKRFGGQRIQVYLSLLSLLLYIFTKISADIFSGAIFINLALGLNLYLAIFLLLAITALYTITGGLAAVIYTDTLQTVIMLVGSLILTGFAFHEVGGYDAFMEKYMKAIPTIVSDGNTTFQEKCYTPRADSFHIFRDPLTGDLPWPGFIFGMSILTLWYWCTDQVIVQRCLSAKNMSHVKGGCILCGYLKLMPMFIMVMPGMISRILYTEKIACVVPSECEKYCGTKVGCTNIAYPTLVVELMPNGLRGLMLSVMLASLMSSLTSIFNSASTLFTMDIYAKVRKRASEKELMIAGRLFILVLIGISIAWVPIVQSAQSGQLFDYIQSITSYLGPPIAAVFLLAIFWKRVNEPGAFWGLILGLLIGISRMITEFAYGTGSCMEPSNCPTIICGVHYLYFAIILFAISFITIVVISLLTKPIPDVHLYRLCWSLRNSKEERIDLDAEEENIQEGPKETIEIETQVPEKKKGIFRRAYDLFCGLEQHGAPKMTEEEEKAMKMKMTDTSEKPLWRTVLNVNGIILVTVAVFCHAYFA
# hSGLT2 = molecular target: T2, hSGLT2 (Homo sapiens, UniProt P31639); assay: SGLT2 inhibition assay for validation of screening hits and similar compounds (1‐NBD‐glucose uptake, CHO‐hSGLT2 cells); assay type: cell-based; parameters: activity: dose or concentration left out as unconfirmed; details: for remaining activity at 5 µM / remaining activity at 50 µM: 0.5 h, read-out: NORMALIZED SGLT2 ACTIVITY (%); for activity: compound, normalized 1-NBD-glucose uptake, CHO-hSGLT2 cells; for SGLT2/SGLT1 ACTIVITY RATIO 5 uM Mean: ratio of normalized SGLT2 to SGLT1 activity at 5 uM
# T2 sequence (P31639 1-672): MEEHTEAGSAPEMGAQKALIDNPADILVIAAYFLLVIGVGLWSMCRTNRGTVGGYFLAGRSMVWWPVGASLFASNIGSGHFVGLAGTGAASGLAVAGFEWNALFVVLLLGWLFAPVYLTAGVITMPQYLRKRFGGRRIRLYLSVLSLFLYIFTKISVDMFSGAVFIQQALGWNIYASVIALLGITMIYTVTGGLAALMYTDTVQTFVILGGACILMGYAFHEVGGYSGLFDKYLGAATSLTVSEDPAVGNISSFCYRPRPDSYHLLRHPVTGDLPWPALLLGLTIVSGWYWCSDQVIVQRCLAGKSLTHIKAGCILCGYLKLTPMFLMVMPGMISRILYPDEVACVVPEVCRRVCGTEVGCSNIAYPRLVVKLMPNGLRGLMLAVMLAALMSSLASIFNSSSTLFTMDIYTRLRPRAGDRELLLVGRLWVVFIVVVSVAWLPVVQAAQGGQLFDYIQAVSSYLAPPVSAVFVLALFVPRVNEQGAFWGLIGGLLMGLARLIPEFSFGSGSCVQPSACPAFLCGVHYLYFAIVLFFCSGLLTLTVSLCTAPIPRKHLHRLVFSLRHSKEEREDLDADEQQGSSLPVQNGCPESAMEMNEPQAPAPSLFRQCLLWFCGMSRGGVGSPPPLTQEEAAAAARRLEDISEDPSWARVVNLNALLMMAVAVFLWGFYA
# CHO‐hSGLT1/2 cells = assay: Cytotoxicity assay (ToxiLight, adenylate kinase leakage into CHO‐SGLT1/2 inhibition assay media); parameters: CYTOTOXICITY / CY[…], mean / CYTOTOXICITY (% of vehicle control) Mean / CYTOTOXICITY, mean / CY[…] (% of vehicle control) Mean: dose or concentration left out as unconfirmed; details: mean; for CY[…] 50 mM: at 50 mM (so in the source);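 for all read-outs here: bioluminescent read-out of adenylate kinase released from lysed cells into the medium, given relative to DMSO vehicle control defined as 0%, higher meaning more cytolysis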
# Description: The cytotoxicity of representative SGLT1/2 inhibitors and compounds from the different chemical clusters was tested. Cytotoxicity was determined using the ToxiLight bioassay kit according to the supplier's instructions. This nondestructive assay measures leakage of the enzyme adenylate kinase (AK) from damaged cells into the CHO‐SGLT1/2 inhibition assay media, ie the degree of cytolysis. […] Next, bioluminescence was measured using a FlexStation 3 Multi‐Mode Microplate Reader (Molecular Devices) by 1 second integrated reading. Cytotoxicity was expressed as the percentage of bioluminescence of the DMSO vehicle control which was set at 0%. If applicable, statistical outliers were determined using Grubbs’ test (alpha = 0.05) and excluded for calculation of the mean ± SD.
# [1] = mean inhibition with 50 μmol/L inhibitor
SMILES,"remaining activity at 5 µM (SGLT1; mean, concentration not given) [%]","remaining activity at 50 µM (SGLT1; mean, concentration not given) [%]","remaining activity at 5 µM (hSGLT2; mean, concentration not given) [%]","remaining activity at 50 µM (hSGLT2; mean, concentration not given) [%]",activity (SGLT1; mean) [%],activity (hSGLT2; mean) [%],SGLT2/SGLT1 ACTIVITY RATIO 5 uM Mean (hSGLT2),CYTOTOXICITY (% of vehicle control) Mean (CHO‐hSGLT1/2 cells),CYTOTOXICITY (CHO‐hSGLT1/2 cells),further results
C[C@@H]1O[C@@H](O[C@H]2[C@H](O[C@H]3CC[C@@]4(C)[C@@H](CC[C@]5(C)[C@@H]4CC=C4[C@@H]6CC(C)(C)CC[C@]6(C(=O)O[C@@H]6O[C@H](CO[C@@H]7O[C@H](CO)[C@@H](O)[C@H](O)[C@H]7O)[C@@H](O)[C@H](O)[C@H]6O)CC[C@]45C)[C@]3(C)CO)OC[C@H](O)[C@@H]2O)[C@H](O)[C@H](O)[C@H]1O [Dipsacoside B],–,–,–,–,–,–,–,–,–,remaining activity at 5 µM (SGLT1): 96%; remaining activity at 50 µM (SGLT1): 104%; SGLT2/SGLT1 ACTIVITY RATIO (hSGLT2): 1.2 and 1.3; remaining activity at 5 µM (hSGLT2): 121%; remaining activity at 50 µM (hSGLT2): 121%; CY[…] 50 mM (CHO‐hSGLT1/2 cells): -12
C=C[C@@]1(C)CC(=O)[C@]2(O)[C@@]3(C)[C@@H](O)CCC(C)(C)[C@@H]3[C@H](O)[C@H](OC(C)=O)[C@@]2(C)O1 [Forskolin],89,79,103,95,–,–,–,–,–,CY[…] 50 mM (CHO‐hSGLT1/2 cells): 12
COc1ccc(-c2coc3cc(O[C@@H]4O[C@H](CO)[C@@H](O)[C@H](O)[C@H]4O)cc(O)c3c2=O)cc1 [Sissotrin],–,–,–,–,99,106,1.1,-23 % of vehicle control,–,–
Oc1cc(O)cc(/C=C/c2ccc(O)cc2O)c1 [Oxyresveratrol],105,123,109,115,–,–,–,–,-89,–
OC(CCN1CCCCC1)(c1ccccc1)C1CC2C=CC1C2 (stereo not drawn) [Biperiden HCl],–,–,–,–,79,75,0.949,–,–,CY[…] (% of vehicle control) Mean (CHO‐hSGLT1/2 cells): -7 % of vehicle control
Oc1ccc(/C=C/c2cc(O)cc3c2[C@@H](c2cc(O)cc(O)c2)[C@H](c2ccc(O)cc2)O3)cc1 [(-)-e-Viniferin],106,117,107,65,–,–,–,–,-9,–
COc1cc(O)cc(/C=C/c2cccc(O)c2)c1 [Thunalbene],106,145,108,148,–,–,–,–,-81,–
Oc1ccc(/C=C/c2cc(O)cc3c2[C@H](c2cc(O)cc(O)c2)[C@@H](c2ccc(O)cc2)O3)cc1 [(+)-e-Viniferin],97,56,102,79,–,–,–,–,6,–
CC=C(C)C(=O)O[C@H]1c2c(ccc3ccc(=O)oc23)OC(C)(C)[C@H]1OC(C)=O [(+)-Pteryxin],–,–,–,–,75,81,1.1,2 % of vehicle control,–,–
"COC(=O)C(c1ccccc1Cl)N1CCc2sccc2C1 (stereo not drawn) [Clopidogrelum, clopidogrel]",–,–,–,–,–,–,–,–,–,remaining activity at 5 µM (SGLT1): 96%; remaining activity at 50 µM (SGLT1): 54%; SGLT2/SGLT1 ACTIVITY RATIO (hSGLT2): 1.1 and 1.0; remaining activity at 5 µM (hSGLT2): 95%; remaining activity at 50 µM (hSGLT2): 60%; CY[…] 50 mM (CHO‐hSGLT1/2 cells): -9
O=c1c2ccccc2[nH]c(=S)n1CCN1CCC(=C(c2ccc(F)cc2)c2ccc(F)cc2)CC1 [Diacylglycerol Kinase Inhibitor II],105,89,106,85,–,–,–,–,-13,–
CCN(CC)CCOC(=O)C(c1ccccc1)c1ccccc1 [Adiphenine HCl],–,–,–,–,108,113,1.0,–,–,CY[…] (% of vehicle control) Mean (CHO‐hSGLT1/2 cells): -16 % of vehicle control
Oc1cc(O)cc(/C=C/c2ccccc2)c1 [Pinosylvin],98,155,97,117,–,–,–,–,-71,–
CN1[C@@H](CC(=O)c2ccccc2)CCC[C@H]1C[C@H](O)c1ccccc1 [(-)-Lobeline HCl],98,57,97,63,–,–,–,–,–,CY[…] 50 mM (CHO‐hSGLT1/2 cells): -18
O=c1c(-c2ccc(O)cc2)coc2cc(O[C@@H]3O[C@H](CO)[C@@H](O)[C@H](O)[C@H]3O)ccc12 [Daidzin],–,–,–,–,97,102,1.0,-19 % of vehicle control,–,–
CC=C(C)C(=O)O[C@@H]1[C@H](OC(C)=O)c2c(ccc3ccc(=O)oc23)OC1(C)C [praeruptorin A],–,–,–,–,93,111,1.2,-0.825 % of vehicle control,–,SGLT2/SGLT1‐50μmol/L (ratio of SGLT2 to SGLT1 activities with 50 μmol/L inhibitor) (SGLT1): 3.1
"Cc1nc2sccn2c(=O)c1CCN1CCC(=C(c2ccc(F)cc2)c2ccc(F)cc2)CC1 [ritanserin, reference compound]",76,44,64,15,–,–,–,–,-5.28,SGLT2/SGLT1‐50μmol/L (ratio of SGLT2 to SGLT1 activities with 50 μmol/L inhibitor) (SGLT1): 0.3
C/C=C(\C)C(=O)O[C@H]1c2c(ccc3ccc(=O)oc23)OC(C)(C)[C@H]1OC(=O)/C(C)=C/C [praeruptorin D],–,–,–,–,79,110,1.4,-9 % of vehicle control,–,SGLT2/SGLT1‐50μmol/L (ratio of SGLT2 to SGLT1 activities with 50 μmol/L inhibitor) (SGLT1): 2.6
CC1(C)Oc2ccc3ccc(=O)oc3c2CC1O (stereo not drawn) [Lomatin],–,–,–,–,–,–,1.0,-26 % of vehicle control,–,SGLT1 inhibition (SGLT1; [1]): no SGLT inhibition; SGLT2 inhibition (hSGLT2; [1]): no SGLT inhibition
COc1cc(O[C@@H]2O[C@H](CO)[C@@H](O)[C@H](O)[C@H]2O)c2c(c1)O[C@H](c1ccc(O)cc1)CC2=O [Sakuranin],–,–,–,–,98,100,1.0,-1.5 % of vehicle control,–,–
CC1(C)Oc2ccc3ccc(=O)oc3c2[C@@H](O)[C@H]1O[C@@H]1O[C@H](CO)[C@@H](O)[C@H](O)[C@H]1O [Praeroside II],–,–,–,–,98,98,1.0,10 % of vehicle control,–,–
COc1ccc(-c2coc3cc(O[C@@H]4O[C@H](CO)[C@@H](O)[C@H](O)[C@H]4O)c(OC)cc3c2=O)cc1OC [Cladrastin-7-O-b-D-glucopyranoside],–,–,–,–,104,103,1.0,-23 % of vehicle control,–,–
COc1cc(/C=C/c2ccc(O)cc2)cc(OC)c1 [Pterostilbene],100,119,102,123,–,–,–,–,-42,–
COc1ccc(-c2coc3cc(O[C@@H]4O[C@H](CO)[C@@H](O)[C@H](O)[C@H]4O)c(OC)cc3c2=O)cc1 [wistin],–,–,–,–,99,98,1.0,-51 % of vehicle control,–,"Cytotoxicity (percentage of bioluminescence of DMSO vehicle control, set at 0%) (CHO‐hSGLT1/2 cells; CHO‐SGLT1 and CHO‐SGLT2 data combined, ≥20% considered toxic): −51%"
